The record followed here is patent US20250179017A1 (GUANGDONG NEWOPP BIOPHARMACEUTICALS CO., LTD., priority 2022, published 2025).

One assay has as its target T1, human EP4 (EP4R) (Homo sapiens, UniProt P35408).
T1 construct: Cayman Chemical (Human EP4 Reporter Assay Kit)
The experiment in a line: EP4 antagonist assay (HEK-293 CNG membrane potential cAMP assay / 293T SEAP reporter assay, PGE2-stimulated). Format: cell-based. As to conditions: EP4 antagonist activity; concentration for inhibition of signal compared to DMSO. An excerpt: 1. The HEK-293 CNG (Cyclic Nucleotide Gated) cell line expressing a modified CNG channel that leads to cell membrane depolarization in response to elevated intracellular cAMP levels, which can be measured using a fluorescent membrane potential dye, was engineered to express human EP2 (PTGER2) or EP4 (EP4R). The resulting cell line ACTOne™ PTGER2 or ACTOne™ EP4R as well as the fluorescent membrane potential dye were purchased from eEnzyme (Gaithersburg, MD, US) and used in this assay. Briefly, cells were plated at 1.2×10^4 cells/well in 20 μL DMEM supplemented with 2% Fetal Bovine Serum (FBS, VWR International), 1x Penicillin/Streptomycin (GenClone), 0.2 μg/mL puromycin (InvivoGen) and 50 μg/mL G418 (InvivoGen) on a 384 well plate (Greiner). The next day, cells were dye-loaded with 20 μL/well of 1x Dye-loading solution (eENZYME) following the manufacturer's instruction. After 2 hours of incubation at room temperature (RT) in the dark, a pre-read was made to obtain the background signals using CLARIOstar plate reader (BMG LABTECH, Germany) with the following filter settings: excitation=530/20 nm, emission=590/20 nm. Next, a serial dilution of compound (plus a DMSO control) were added to the plate (5 μL/well) and the reaction was incubated at RT for 15 min before adding 5 μL of PGE2 to every well for a final concentration of 5 nM. All wells were duplicated. The plate was then further incubated at RT for 30 min prior to a final read with the same machine settings. Background-subtracted signals were used to calculate IC50 values.
2. Human EP2 and EP4 Reporter Assay Kits were purchased from Cayman Chemical (Ann Arbor, MI, USA). The assay was performed following the provided User Manual. Briefly, a reverse transfection was performed by seeding 6.0×10^4 of 293T cells (ATCC) to each well of the provided Strip Plate coated with a proprietary transfection complex containing DNA constructs for expressing human EP2 or EP4 and a cAMP response element regulated secreted alkaline phosphatase (SEAP) reporter, in 200 μL DMEM supplemented with 2% FBS and incubated for 20-24 hours at 37° C. with 5% CO2. After the incubation, the culture medium was carefully removed, and the cells were replenished with 150 μL pre-warmed serum-free medium. PGE2 and test compounds were prepared together at 4x the desired final concentration, and 50 μL was added to each assigned well with the final concentration of 13 nM and 2 nM PGE2 for EP2 and EP4 assay, respectively. After 6-8 hours of incubation, 10 μL media from each well was transferred to corresponding well of a new plate, which was then sealed and incubated at 65° C. for 30 min. The plate was then cooled down to RT and 50 μL SEAP substrate was added to each well. Luminescence signal was measured using a CLARIOstar plate reader.
The IC50 value was determined as the concentration for […] inhibition of signal compared to DMSO (A: IC50≤100 nM; B: IC50 between 100 nM and 1,000 nM; C: IC50≥1,000 nM).

The target of the next assay is T2, human EP2 (PTGER2) (Homo sapiens, UniProt P43116).
T2 construct: Cayman Chemical (Human EP2 Reporter Assay Kit)
T2 sequence (P43116 whole entry): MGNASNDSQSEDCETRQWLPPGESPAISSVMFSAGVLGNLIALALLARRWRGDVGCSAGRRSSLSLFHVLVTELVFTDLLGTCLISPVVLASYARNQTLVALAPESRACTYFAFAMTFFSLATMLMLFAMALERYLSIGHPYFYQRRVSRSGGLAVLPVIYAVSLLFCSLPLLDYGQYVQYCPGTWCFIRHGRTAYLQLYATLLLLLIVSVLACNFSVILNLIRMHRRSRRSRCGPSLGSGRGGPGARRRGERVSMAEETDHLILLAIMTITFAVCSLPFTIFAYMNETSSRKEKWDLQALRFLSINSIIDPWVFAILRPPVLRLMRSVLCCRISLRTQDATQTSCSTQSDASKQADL
The experiment in a line: EP2 antagonist assay (HEK-293 CNG membrane potential cAMP assay / 293T SEAP reporter assay, PGE2-stimulated). Format: cell-based. As to conditions: EP2 antagonist activity; concentration for 50% inhibition of signal compared to DMSO. An outline of the steps: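 Two formats. In a CRE-SEAP reporter assay, reverse-transfected 293T cells received compound with PGE2 (13 nM final) for 6-8 h, then luminescence was read. In the ACTOne CNG format, HEK-293 cells were preincubated with compound for 15 min at RT, stimulated with 5 nM PGE2 for 30 min, and read by membrane-potential dye fluorescence. IC50 was taken versus DMSO.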

T1 sequence (P35408 whole entry): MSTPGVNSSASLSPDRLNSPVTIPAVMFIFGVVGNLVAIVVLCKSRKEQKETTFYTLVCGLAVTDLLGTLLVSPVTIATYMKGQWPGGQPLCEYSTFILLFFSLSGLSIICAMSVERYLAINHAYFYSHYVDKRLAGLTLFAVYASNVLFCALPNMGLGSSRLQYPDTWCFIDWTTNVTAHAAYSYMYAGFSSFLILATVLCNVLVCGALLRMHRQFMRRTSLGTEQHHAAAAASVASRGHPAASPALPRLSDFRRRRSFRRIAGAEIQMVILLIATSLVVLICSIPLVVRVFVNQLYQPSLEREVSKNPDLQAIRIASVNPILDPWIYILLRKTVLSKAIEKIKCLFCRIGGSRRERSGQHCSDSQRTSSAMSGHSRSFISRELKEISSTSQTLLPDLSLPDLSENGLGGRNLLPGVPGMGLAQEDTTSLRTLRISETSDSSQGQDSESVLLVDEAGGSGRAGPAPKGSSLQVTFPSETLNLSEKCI

With `O=C(O)c1ccc(CNC(=O)c2cc(-c3ccc(F)cc3)cc3ccn(Cc4ccc(C(F)(F)F)cc4)c23)cc1` [Example 1, 4-((5-(4-fluorophenyl)-1-(4-(trifluoromethyl)benzyl)-1H-indole-7-carboxamido)methyl)benzoic acid], the results for the IC50 against human EP4 (EP4R) and at human EP2 (PTGER2) were not above 100 nM and less than 100 nM, respectively.

`O=C(O)c1ccc(CNC(=O)c2cc(-c3ccccc3)cc3ccn(Cc4ccc(C(F)(F)F)cc4)c23)cc1` [Example 2, 4-((5-phenyl-1-(4-(trifluoromethyl)benzyl)-1H-indole-7-carboxamido)methyl)benzoic acid]: the results for the IC50 against human EP4 (EP4R) and at human EP2 (PTGER2) were not above 100 nM and less than 100 nM, respectively.

Regarding `N#Cc1cccc(-c2cc(C(=O)NCc3ccc(C(=O)O)cc3)c3c(ccn3Cc3ccc(C(F)(F)F)cc3)c2)c1` [Example 7, 4-((5-(3-cyanophenyl)-1-(4-(trifluoromethyl)benzyl)-1H-indole-7-carboxamido)methyl)benzoic acid], the IC50 is not above 100 nM against human EP4 (EP4R) and less than 100 nM against human EP2 (PTGER2).

Take `O=C(O)c1ccc(CNC(=O)c2cc(-c3cc(F)cc(F)c3)cc3ccn(Cc4ccc(C(F)(F)F)cc4)c23)cc1` [Example 9, 4-((5-(3,5-difluorophenyl)-1-(4-(trifluoromethyl)benzyl)-1H-indole-7-carboxamido)methyl)benzoic acid]: the IC50 was not above 100 nM on human EP4 (EP4R) and less than 100 nM against human EP2 (PTGER2).

As for `O=C(O)c1ccc(C2(NC(=O)c3ccc(Nc4ccccc4)c4ccn(Cc5ccc(C(F)(F)F)cc5)c34)CC2)cc1` [Example 44, 4-(1-(4-(phenylamino)-1-(4-(trifluoromethyl)benzyl)-1H-indole-7-carboxamido)cyclopropyl)benzoic acid], the results for the IC50 against human EP4 (EP4R) and against human EP2 (PTGER2) were not above 100 nM and less than 100 nM, respectively.

As to `C[C@H](NC(=O)c1cc(-c2ccc(F)cc2)cc2ccn(Cc3ccc(C(F)(F)F)cc3)c12)c1ccc(C(=O)O)cc1` [Example 50, (S)-4-(1-(5-(4-fluorophenyl)-1-(4-(trifluoromethyl)benzyl)-1H-indole-7-carboxamido)ethyl) benzoic acid], the IC50 at human EP4 (EP4R) was not above 100 nM; on human EP2 (PTGER2) it was less than 100 nM.

As to `N#Cc1cccc(-c2cc(C(=O)NC3(c4ccc(C(=O)O)cc4)CC3)c3c(ccn3Cc3cccc(Cl)c3)c2)c1` [Example 206, 4-(1-(1-(3-chlorobenzyl)-5-(3-cyanophenyl)-1H-indole-7-carboxamido)cyclopropyl)benzoic acid], on human EP2 (PTGER2), the IC50 was less than 100 nM.

`C[C@H](NC(=O)c1cc(-c2ccc(F)c(F)c2)cc2ccn(Cc3ccc(-c4ccccc4)cc3)c12)c1ccc(C(=O)O)cc1` [Example 207, (S)-4-(1-(1-([1,1′-biphenyl]-4-ylmethyl)-5-(3,4-difluorophenyl)-1H-indole-7-carboxamido)ethyl)benzoic acid] had an IC50 at human EP2 (PTGER2) of less than 100 nM.

With `O=C(O)c1ccc(CNC(=O)c2cc(-c3ccccc3)cc3ccn(Cc4ccc(-c5ccc(F)cc5)cc4)c23)cc1` [Example 208, 4-((1-((4′-fluoro-[1,1′-biphenyl]-4-yl)methyl)-5-phenyl-1H-indole-7-carboxamido)methyl)benzoic acid], on human EP2 (PTGER2), the IC50 was less than 100 nM.

At human EP2 (PTGER2), `O=C(O)c1ccc(CNC(=O)c2cc(-c3ccc(F)cc3)cc3ccn(Cc4ccc(-c5ccc(F)cc5)cc4)c23)cc1` [Example 209, 4-((1-((4′-fluoro-[1,1′-biphenyl]-4-yl)methyl)-5-(4-fluorophenyl)-1H-indole-7-carboxamido)methyl)benzoic acid] registered an IC50 of less than 100 nM.

For the compound `O=C(O)c1ccc(CNC(=O)c2cc(-c3cc(F)cc(F)c3)cc3ccn(Cc4ccc(-c5ccc(F)cc5)cc4)c23)cc1` [Example 210, 4-((5-(3,5-difluorophenyl)-1-((4′-fluoro-[1,1′-biphenyl]-4-yl)methyl)-1H-indole-7-carboxamido)methyl)benzoic acid], the IC50 against human EP2 (PTGER2) was less than 100 nM.

At human EP2 (PTGER2), `O=C(O)c1ccc(CNC(=O)c2cc(-c3ccc(F)c(F)c3)cc3ccn(Cc4ccc(-c5ccc(F)cc5)cc4)c23)cc1` [Example 211, 4-((5-(3,4-difluorophenyl)-1-((4′-fluoro-[1,1′-biphenyl]-4-yl)methyl)-1H-indole-7-carboxamido)methyl)benzoic acid] showed an IC50 of less than 100 nM.

Compound `C[C@H](NC(=O)c1cc(-c2ccccc2)cc2ccn(Cc3ccc(-c4ccc(F)cc4)cc3)c12)c1ccc(C(=O)O)cc1` [Example 212, (S)-4-(1-(1-((4′-fluoro-[1,1′-biphenyl]-4-yl)methyl)-5-phenyl-1H-indole-7-carboxamido)ethyl)benzoic acid] came in with an IC50 against human EP2 (PTGER2) of less than 100 nM.

Regarding `C[C@H](NC(=O)c1cc(-c2ccc(F)cc2)cc2ccn(Cc3ccc(-c4ccc(F)cc4)cc3)c12)c1ccc(C(=O)O)cc1` [Example 213, (S)-4-(1-(1-((4′-fluoro-[1,1′-biphenyl]-4-yl)methyl)-5-(4-fluorophenyl)-1H-indole-7-carboxamido)ethyl)benzoic acid], the IC50 against human EP2 (PTGER2) was less than 100 nM.

Turning to `C[C@H](NC(=O)c1cc(-c2cc(F)cc(F)c2)cc2ccn(Cc3ccc(-c4ccc(F)cc4)cc3)c12)c1ccc(C(=O)O)cc1` [Example 214, (S)-4-(1-(5-(3,5-difluorophenyl)-1-((4′-fluoro-[1,1′-biphenyl]-4-yl)methyl)-1H-indole-7-carboxamido)ethyl)benzoic acid], the IC50 at human EP2 (PTGER2) was less than 100 nM.

`C[C@H](NC(=O)c1cc(-c2ccc(F)c(F)c2)cc2ccn(Cc3ccc(-c4ccc(F)cc4)cc3)c12)c1ccc(C(=O)O)cc1` [Example 215, (S)-4-(1-(5-(3,4-difluorophenyl)-1-((4′-fluoro-[1,1′-biphenyl]-4-yl)methyl)-1H-indole-7-carboxamido)ethyl)benzoic acid] had a half-maximal inhibitory concentration (IC50) at human EP2 (PTGER2) of less than 100 nM.

Regarding `O=C(O)c1ccc(CNC(=O)c2cc(-c3ccc(F)c(F)c3)cc3ccn(Cc4ccc5ccccc5c4)c23)cc1` [Example 216, 4-((5-(3,4-difluorophenyl)-1-(naphthalen-2-ylmethyl)-1H-indole-7-carboxamido)methyl)benzoic acid], the IC50 against human EP2 (PTGER2) is less than 100 nM.

On to `C[C@H](NC(=O)c1cc(-c2ccc(F)c(F)c2)cc2ccn(Cc3ccc4ccccc4c3)c12)c1ccc(C(=O)O)cc1` [Example 217, (S)-4-(1-(5-(3,4-difluorophenyl)-1-(naphthalen-2-ylmethyl)-1H-indole-7-carboxamido)ethyl)benzoic acid], for which the IC50 against human EP2 (PTGER2) was less than 100 nM.

On human EP2 (PTGER2), `O=C(O)c1ccc(CNC(=O)c2cc(-c3ccc(F)c(F)c3)cc3cnn(Cc4ccc5ccccc5c4)c23)cc1` [Example 218, 4-((5-(3,4-difluorophenyl)-1-(naphthalen-2-ylmethyl)-1H-indazole-7-carboxamido)methyl)benzoic acid] showed an IC50 of less than 100 nM.

On human EP2 (PTGER2), `C[C@H](NC(=O)c1cc(-c2ccc(F)c(F)c2)cc2cnn(Cc3ccc4ccccc4c3)c12)c1ccc(C(=O)O)cc1` [Example 219, (S)-4-(1-(5-(3,4-difluorophenyl)-1-(naphthalen-2-ylmethyl)-1H-indazole-7-carboxamido)ethyl)benzoic acid] gave an IC50 of less than 100 nM.

Take `C[C@H](NC(=O)c1cc(-c2ccc(F)c(F)c2)cc2cnn(Cc3cccc(C(F)(F)F)c3)c12)c1ccc(C(=O)O)cc1` [Example 220, (S)-4-(1-(5-(3,4-difluorophenyl)-1-(3-(trifluoromethyl)benzyl)-1H-indazole-7-carboxamido)ethyl)benzoic acid]: the IC50 on human EP2 (PTGER2) is less than 100 nM.

“((5-(3-cyano-5-fluorophenyl)-1-(4-(trifluoromethyl)benzyl)-1H-indole-7-carboxamido)methyl)benzoic acid [Example 77]” came in with an IC50 on human EP2 (PTGER2) of less than 100 nM.
